Data reported in patent US20260137697A1, “THIAZOLO[5,4-D]PYRIMIDINE COMPOUNDS, COMPOSITIONS COMPRISING THEM AND USES THEREOF” (University de Montreal, priority 2022, published 2026).

Target: T1, ARAF (Homo sapiens, UniProt P10398)
T1 construct: ARAF kinase reactions were rigorously the same with the exception that kinase concentration was raised to 3.75 nM (cat. No. 1768-0000-1; Reaction Biology)
T1 sequence (P10398 303-606 limits assumed): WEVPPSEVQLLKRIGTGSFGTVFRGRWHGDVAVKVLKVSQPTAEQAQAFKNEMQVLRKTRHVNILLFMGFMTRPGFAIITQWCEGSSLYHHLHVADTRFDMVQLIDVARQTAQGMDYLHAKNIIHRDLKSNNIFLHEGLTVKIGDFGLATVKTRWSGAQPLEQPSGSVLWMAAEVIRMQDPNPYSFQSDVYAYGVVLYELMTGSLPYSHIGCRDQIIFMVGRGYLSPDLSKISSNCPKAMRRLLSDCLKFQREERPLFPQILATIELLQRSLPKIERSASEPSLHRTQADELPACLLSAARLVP
Assay: ARAF kinase activity assay (AlphaLISA p-MEK 1/2)
Type: biochemical
Conditions: Table A; 10 μM ATP, kinase-dead MEK1 substrate
Experimental: Compound preparation: solid samples of each substance in 1dram vials were suspended in DMSO (Fisher Scientific) at a stock concentration of 20 mM. Stocks were kept at −20° C. and protected from light. If solubility of the compound at 20 mM appeared to be an issue, the initial concentration of the DMSO stock was changed to 10 mM or 5 mM.
In vitro enzymatic reactions were used for evaluating compounds intrinsic activity against BRAF, CRAF and ARAF. For BRAF and CRAF, 0.375 nM of purified GST-tagged kinases (cat. No. B4062-10UG and cat. No. R1656-10UG respectively from Millipore Sigma) were incubated with 75 nM of kinase-dead MEK1 substrate (cat. No. 40075; BPS Bioscience) in the presence of 10 μM of Ultrapure ATP (cat. No. V9102; Promega; part V915A) with and without the test compound in a buffer containing 50 mM HEPES pH 7.5, 10 mM MgCl2, 1 mM EDTA, 0.01% Brij-35 and 2 mM DTT. Separate reactions were performed with the MEK1 substrate and ATP as a blank control. ARAF kinase reactions were rigorously the same with the exception that kinase concentration was raised to 3.75 nM (cat. No. 1768-0000-1; Reaction Biology).
For compound treatment, 5 μL/well of test substance solution are placed in a 384-well proxyplate (Perkin Elmer) and mixed with 2× concentrated kinase reactions. The dilution series is selected so that nine concentrations cover a range from 100 nM to 0.01 nM. […] The final concentration of DMSO in the assay is set at 0.05%.
ARAF kinase reactions were carried out for a total of 2 hours at 30° C. and then stopped by addition of EDTA at a final concentration of 40 mM. Reactions were then detected using the AlphaLISA® SureFire® Ultra™ p-MEK 1/2 (Ser218/222) (PerkinElmer) kit. Reactions were performed with 5 μL of kinase reaction according to the manufacturer's specifications in 384-well proxyplates (Perkin Elmer) followed by overnight incubation of the AlphaLISA® reactions at room temperature in a humidified chamber. After completion of the detection reactions, the signals were recorded on a Synergy Neo2 plate reader (Biotek) equipped with AlphaLISA® filters. The effect of each compound dilution on the pMEK signal generated by ARAF reactions was expressed in % inhibition and calculated as follows. An internal 100% inhibition control (average of luminescence in kinase reactions comprising kinase dead MEK1 substrate alone) was included in each plate to measure of pMEK background and was subtracted from each data point. The average of DMSO (vehicle) controls (set as 0% inhibition) was also established and used to calculate % inhibition:
IC50 values were obtained by plotting the kinase inhibition values and fitting the dose-activity curves using a log(agonist) versus response—variable slope (four parameters) function using either GraphPadPrism (V7.0) or Dotmatics Screening Ultra platform. Standards included in the ARAF kinase assay were Belvarafenib (MedChem Express cat. No. HY-109080; CAS No. 1446113-23-0), LXH254 (MedChem Express cat. No. HY-112089; CAS No. 1800398-38-2) and BGB283 (cat. No. HY-18957; CAS No. 1446090-79-4).

IC50 [nM]	Compound
1 to 10	Cc1c(F)cccc1S(=O)(=O)Nc1ccc(F)c(Nc2ncnc3sc(-n4cc(C(=O)N5C6CCC5CN(C)C6)c5ccccc54)nc23)c1F [Example 44]
1 to 10	N#CC1(c2cccc3c2ncn3-c2nc3c(Nc4c(F)ccc(NS(=O)(=O)c5cccc(Cl)c5Cl)c4F)ncnc3s2)CC1 [Example 122]
> 10	Cc1ccc2c(Nc3cccc(Cl)c3F)nccc2c1NC(=O)c1csc2c(N)ncnc12 [Belvarafenib, reference compound]
